Tests used:
IKZF1 = biological target: T1, IKZF1 (Homo sapiens, UniProt Q13422+Q96SW2); experiment: Flow cytometry for measuring degradation, HEK293T GFP-POI reporter cells (IKZF1); format: cell-based; settings: for IKZF1% degradation at 100 nM / IKZF1% degradation at 1 μM: 24 h, HEK293T GFP reporter; for Dmax: HEK-293T
T1 construct: expressed in transfected cells; host or cells: HEK293T (lentiviral transduction, puromycin selection, FACS sorting)

[1] = In vitro solubility in DMSO; format: physicochemical; settings: DMSO, organic solvent or mixture
CK1α = biological target: T2, CK1α (Homo sapiens, UniProt P48729+Q96SW2); experiment: Flow cytometry for measuring degradation, HEK293T GFP-POI reporter cells (CK1α); format: cell-based; settings: for CK1α % degradation at 100 nM / CK1α % degradation at 1 μM: 24 h, HEK293T GFP reporter; for Dmax: CK1, read-out: Dmax CK1a (%); for Dmax / DC50: Table 3; for DC50: read-out: DC50 CK1a
T2 construct: expressed in transfected cells; host or cells: HEK293T (lentiviral transduction, puromycin selection, FACS sorting)
T2 sequence (P48729 whole entry): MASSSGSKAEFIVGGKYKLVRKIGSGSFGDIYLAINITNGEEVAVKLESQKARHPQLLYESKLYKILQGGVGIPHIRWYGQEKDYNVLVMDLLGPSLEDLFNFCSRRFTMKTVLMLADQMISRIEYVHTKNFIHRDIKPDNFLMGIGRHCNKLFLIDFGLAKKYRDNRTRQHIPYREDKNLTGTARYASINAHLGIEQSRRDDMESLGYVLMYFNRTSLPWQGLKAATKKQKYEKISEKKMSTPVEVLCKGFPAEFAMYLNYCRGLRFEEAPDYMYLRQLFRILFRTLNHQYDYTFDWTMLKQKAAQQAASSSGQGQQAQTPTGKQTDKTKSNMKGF
T2 sequence (Q96SW2 whole entry): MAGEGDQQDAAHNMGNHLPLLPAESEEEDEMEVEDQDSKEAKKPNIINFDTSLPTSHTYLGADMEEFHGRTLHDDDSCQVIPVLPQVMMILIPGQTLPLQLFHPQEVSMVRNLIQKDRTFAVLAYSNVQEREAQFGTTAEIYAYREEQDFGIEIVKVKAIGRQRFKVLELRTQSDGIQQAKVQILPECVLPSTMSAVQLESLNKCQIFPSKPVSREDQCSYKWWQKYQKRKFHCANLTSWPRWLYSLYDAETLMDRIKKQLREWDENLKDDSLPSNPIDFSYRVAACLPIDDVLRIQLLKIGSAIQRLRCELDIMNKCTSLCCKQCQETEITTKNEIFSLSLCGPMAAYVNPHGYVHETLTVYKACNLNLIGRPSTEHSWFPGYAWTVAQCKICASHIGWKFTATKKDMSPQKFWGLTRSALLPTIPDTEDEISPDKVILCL
T2 sequence (Q16531 whole entry partner): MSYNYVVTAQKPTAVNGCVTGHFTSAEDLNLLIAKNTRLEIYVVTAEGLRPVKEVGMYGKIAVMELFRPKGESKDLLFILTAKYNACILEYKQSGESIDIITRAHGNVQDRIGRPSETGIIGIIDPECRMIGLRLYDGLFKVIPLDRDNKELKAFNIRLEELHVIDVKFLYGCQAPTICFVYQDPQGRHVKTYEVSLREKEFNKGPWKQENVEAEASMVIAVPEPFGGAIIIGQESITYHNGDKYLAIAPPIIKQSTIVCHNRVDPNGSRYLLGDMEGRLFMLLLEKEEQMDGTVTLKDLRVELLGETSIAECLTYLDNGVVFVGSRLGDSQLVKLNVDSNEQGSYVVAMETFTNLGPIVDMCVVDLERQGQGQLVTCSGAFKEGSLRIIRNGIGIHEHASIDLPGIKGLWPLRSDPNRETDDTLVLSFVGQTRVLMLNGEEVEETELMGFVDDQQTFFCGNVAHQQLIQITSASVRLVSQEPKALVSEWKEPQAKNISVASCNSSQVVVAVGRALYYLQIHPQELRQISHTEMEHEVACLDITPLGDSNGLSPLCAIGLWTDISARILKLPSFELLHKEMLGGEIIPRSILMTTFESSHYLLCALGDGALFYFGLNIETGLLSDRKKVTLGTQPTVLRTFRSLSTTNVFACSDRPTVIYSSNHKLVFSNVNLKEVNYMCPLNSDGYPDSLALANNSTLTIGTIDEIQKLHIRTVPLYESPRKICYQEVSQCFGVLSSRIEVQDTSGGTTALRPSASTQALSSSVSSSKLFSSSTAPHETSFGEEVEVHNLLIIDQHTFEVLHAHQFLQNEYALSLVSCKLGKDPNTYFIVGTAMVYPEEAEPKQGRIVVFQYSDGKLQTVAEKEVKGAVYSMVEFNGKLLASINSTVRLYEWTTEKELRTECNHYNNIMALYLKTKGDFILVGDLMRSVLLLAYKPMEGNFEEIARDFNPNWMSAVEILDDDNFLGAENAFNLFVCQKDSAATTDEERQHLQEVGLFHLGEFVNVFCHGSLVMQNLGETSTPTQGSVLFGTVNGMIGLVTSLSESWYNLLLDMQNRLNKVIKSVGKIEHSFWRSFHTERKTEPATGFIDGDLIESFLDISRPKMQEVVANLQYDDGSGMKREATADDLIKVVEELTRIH

GSPT1 = GSPT1 (Homo sapiens, UniProt P15170+Q96SW2); experiment: Flow cytometry for measuring degradation, HEK293T GFP-POI reporter cells (GSPT1); format: cell-based; set-up: expressed in transfected cells; host or cells: HEK293T; settings: for GSPT1% degradation at 100 nM / GSPT1% degradation at 1 μM: 24 h, HEK293T GFP reporter; for Dmax: HEK-293T
Chain of GSPT1 (P15170 whole entry): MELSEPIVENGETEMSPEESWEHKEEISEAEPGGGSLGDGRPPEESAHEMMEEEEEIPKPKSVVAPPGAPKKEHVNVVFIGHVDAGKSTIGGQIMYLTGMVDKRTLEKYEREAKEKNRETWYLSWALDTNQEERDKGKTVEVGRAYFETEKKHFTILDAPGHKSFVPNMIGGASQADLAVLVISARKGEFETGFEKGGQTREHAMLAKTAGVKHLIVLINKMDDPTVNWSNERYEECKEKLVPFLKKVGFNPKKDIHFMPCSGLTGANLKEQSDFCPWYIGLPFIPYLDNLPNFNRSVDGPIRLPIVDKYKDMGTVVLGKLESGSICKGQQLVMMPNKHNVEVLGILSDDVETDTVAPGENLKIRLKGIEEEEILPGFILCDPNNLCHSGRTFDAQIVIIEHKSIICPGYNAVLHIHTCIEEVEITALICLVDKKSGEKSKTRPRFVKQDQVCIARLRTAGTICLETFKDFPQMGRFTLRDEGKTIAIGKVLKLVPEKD
Chain of GSPT1 (Q96SW2 whole entry): as the sequence (Q96SW2 whole entry) above
Chain of GSPT1 (Q16531 whole entry partner): as the sequence (Q16531 whole entry partner) above

IKZF2 = biological target: T3, IKZF2 (Homo sapiens, UniProt Q96SW2+Q9UKS7); experiment: Flow cytometry for measuring degradation, HEK293T GFP-POI reporter cells (IKZF2); format: cell-based; settings: for IKZF2% degradation at 100 nM / IKZF2% degradation at 1 μM: 24 h, HEK293T GFP reporter; for Dmax: HEK-293T; for Dmax / DC50: Table 3
T3 construct: expressed in transfected cells; host or cells: HEK293T (lentiviral transduction, puromycin selection, FACS sorting)
T3 sequence (Q9UKS7 whole entry): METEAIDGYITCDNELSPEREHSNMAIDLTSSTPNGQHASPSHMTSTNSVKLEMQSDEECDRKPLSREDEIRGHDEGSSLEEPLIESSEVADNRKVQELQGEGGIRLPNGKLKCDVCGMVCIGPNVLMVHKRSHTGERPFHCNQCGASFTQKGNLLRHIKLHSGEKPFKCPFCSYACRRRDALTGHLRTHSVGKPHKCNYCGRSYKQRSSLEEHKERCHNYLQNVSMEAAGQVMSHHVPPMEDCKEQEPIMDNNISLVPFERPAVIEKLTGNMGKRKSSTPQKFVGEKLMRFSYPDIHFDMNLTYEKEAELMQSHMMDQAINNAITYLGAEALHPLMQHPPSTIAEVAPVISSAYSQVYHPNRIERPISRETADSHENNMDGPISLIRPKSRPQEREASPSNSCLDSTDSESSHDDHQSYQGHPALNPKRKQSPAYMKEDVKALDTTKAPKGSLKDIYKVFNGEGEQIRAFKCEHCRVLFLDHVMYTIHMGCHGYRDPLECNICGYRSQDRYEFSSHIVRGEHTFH
T3 sequence (Q96SW2 whole entry): as the sequence (Q96SW2 whole entry) above
T3 sequence (Q16531 whole entry partner): as the sequence (Q16531 whole entry partner) above

T1 sequence (Q13422 whole entry): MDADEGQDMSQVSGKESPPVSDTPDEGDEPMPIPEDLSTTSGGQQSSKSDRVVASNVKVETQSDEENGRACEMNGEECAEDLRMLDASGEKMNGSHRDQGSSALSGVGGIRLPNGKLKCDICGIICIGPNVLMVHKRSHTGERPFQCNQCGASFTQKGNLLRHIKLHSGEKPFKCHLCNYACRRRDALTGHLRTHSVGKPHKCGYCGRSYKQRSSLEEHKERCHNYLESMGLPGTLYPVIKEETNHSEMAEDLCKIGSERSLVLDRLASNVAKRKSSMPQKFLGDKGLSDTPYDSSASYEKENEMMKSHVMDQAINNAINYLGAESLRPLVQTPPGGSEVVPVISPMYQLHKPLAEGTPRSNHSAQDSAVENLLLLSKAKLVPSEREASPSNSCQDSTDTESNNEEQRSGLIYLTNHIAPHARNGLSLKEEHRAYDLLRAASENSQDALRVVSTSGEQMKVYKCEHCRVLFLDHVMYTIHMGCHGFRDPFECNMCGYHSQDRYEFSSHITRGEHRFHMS
T1 sequence (Q96SW2 whole entry): as the sequence (Q96SW2 whole entry) above
T1 sequence (Q16531 whole entry partner): as the sequence (Q16531 whole entry partner) above

Compound | IKZF1% degradation at 100 nM (IKZF1) [%] | IKZF1% degradation at 1 μM (IKZF1) [%] | Dmax (IKZF1; Table 3) [%] | solubility [1] [mM] | CK1α % degradation at 100 nM (CK1α) [%] | CK1α % degradation at 1 μM (CK1α) [%] | Dmax (CK1α) [%] | DC50 (CK1α) [nM] | GSPT1% degradation at 100 nM (GSPT1) [%] | GSPT1% degradation at 1 μM (GSPT1) [%] | Dmax (GSPT1; Table 3) [%] | DC50 (GSPT1; Table 3) [nM] | IKZF2% degradation at 100 nM (IKZF2) [%] | IKZF2% degradation at 1 μM (IKZF2) [%] | Dmax (IKZF2) [%] | DC50 (IKZF2) [nM] | DC50 (IKZF1; Table 3) [nM]
CSc1ccc2cc(C(=O)Nc3ccc4c(c3)CN(C3CCC(=O)NC3=O)C4=O)ccc2c1 (stereo not drawn) [DEG-95, N-(2-(2,6-dioxopiperidin-3-yl)-1-oxoisoindolin-5-yl)-6-(methylthio)-2-naphthamide] | 7.7 | 9.1 | 17.2 | > 100 | 76.5 | 80.1 | 78.9 | 2.8 | 16.3 | 24.8 | 33.5 | 1190 | 86.7 | 94.1 | 95.4 | 10.4 | –
C[C@H](NC(=O)c1ccccc1)C(=O)Nc1ccc2c(c1)CN(C1CCC(=O)NC1=O)C2=O (stereo partly drawn) [DEG-98, N-((2S)-1-((2-(2,6-dioxopiperidin-3-yl)-1-oxoisoindolin-5-yl)amino)-1-oxopropan-2-yl)benzamide] | 50.9 | 79.7 | 88 | > 100 | 18.2 | 41.2 | 54.1 | 175 | 5.5 | 6.2 | 0 | – | 35.8 | 68.1 | 80.5 | 143 | 72
COc1cc(C(=O)Nc2ccc3c(c2)CN(C2CCC(=O)NC2=O)C3=O)ccc1Oc1ccccc1 (stereo not drawn) [DEG-76, N-(2-(2,6-dioxopiperidin-3-yl)-1-oxoisoindolin-5-yl)-3-methoxy-4-phenoxybenzamide] | 8.7 ± 1.8 | 17.2 ± 1.2 | – | – | 64.1 ± 0.8 | 69.9 ± 0.5 | – | – | 12.1 ± 0.5 | 21.3 ± 1.7 | – | – | 81.8 ± 0.4 | 92.8 ± 0 | – | – | –
COc1ccc2c(c1)OCC(C(=O)Nc1ccc3c(c1)CN(C1CCC(=O)NC1=O)C3=O)=C2 (stereo not drawn) [DEG-74, N-(2-(2,6-dioxopiperidin-3-yl)-1-oxoisoindolin-5-yl)-7-methoxy-2H-chromene-3-carboxamide] | 4.3 ± 0.5 | 32.5 ± 0.4 | – | – | 59.5 ± 1.1 | 64.8 ± 0.6 | – | – | 9 ± 2.6 | 37.5 ± 2.1 | – | – | 57.1 ± 1.1 | 96 ± 0 | – | – | –
Cc1ccc2c(c1)OCC(C(=O)Nc1ccc3c(c1)CN(C1CCC(=O)NC1=O)C3=O)=C2 (stereo not drawn) [DEG-80, N-(2-(2,6-dioxopiperidin-3-yl)-1-oxoisoindolin-5-yl)-7-methyl-2H-chromene-3-carboxamide] | 8.6 ± 0.1 | 24 ± 0.1 | – | – | 63.5 ± 1.5 | 66.9 ± 1.1 | – | – | 14.3 ± 2.1 | 28 ± 0.8 | – | – | 72.6 ± 0.9 | 91.5 ± 0.2 | – | – | –
O=C1CCC(N2Cc3cc(NC(=O)C4=Cc5ccc(C(F)(F)F)cc5OC4)ccc3C2=O)C(=O)N1 (stereo not drawn) [DEG-81, N-(2-(2,6-dioxopiperidin-3-yl)-1-oxoisoindolin-5-yl)-7-(trifluoromethyl)-2H-chromene-3-carboxamide] | 8 ± 0.5 | 17.4 ± 3.3 | – | – | 66.3 ± 2 | 72 ± 0.3 | – | – | 2.8 ± 0.8 | 11.9 ± 1.9 | – | – | 75.1 ± 0.5 | 91.8 ± 0.1 | – | – | –
O=C1CCC(N2Cc3cc(NC(=O)c4ccc(Sc5ccccc5)cc4)ccc3C2=O)C(=O)N1 (stereo not drawn) [DEG-73, N-(2-(2,6-dioxopiperidin-3-yl)-1-oxoisoindolin-5-yl)-4-(phenylthio)benzamide] | 11.7 ± 0.3 | 26.3 ± 0.6 | – | – | 56.6 ± 1.2 | 60.4 ± 0.6 | – | – | 11.1 ± 1.4 | 19.8 ± 0.8 | – | – | 67.4 ± 1.2 | 87.8 ± 0.3 | – | – | –
O=C1CCC(N2Cc3cc(NC(=O)c4ccc5c(c4)CCCC5)ccc3C2=O)C(=O)N1 (stereo not drawn) [DEG-87, N-(2-(2,6-dioxopiperidin-3-yl)-1-oxoisoindolin-5-yl)-5,6,7,8-tetrahydronaphthalene-2-carboxamide] | 15.5 ± 1 | 27.2 ± 0.7 | – | – | 51.1 ± 1.2 | 56.9 ± 0.8 | – | – | 1.2 ± 2.5 | 4 ± 0.6 | – | – | 74 ± 0.5 | 89.1 ± 0.4 | – | – | –
COc1cc(Br)cc2c1OCC(C(=O)Nc1ccc3c(c1)CN(C1CCC(=O)NC1=O)C3=O)=C2 (stereo not drawn) [DEG-84, 6-bromo-N-(2-(2,6-dioxopiperidin-3-yl)-1-oxoisoindolin-5-yl)-8-methoxy-2H-chromene-3-carboxamide] | 12.6 ± 0.5 | 26.1 ± 0.5 | – | – | 64.7 ± 0.1 | 68 ± 1.8 | – | – | 1.6 ± 1.1 | 4.1 ± 2.6 | – | – | 74.4 ± 0.4 | 87.8 ± 0.2 | – | – | –
O=C1CCC(N2Cc3cc(NC(=O)c4ccc5c(c4)OCO5)ccc3C2=O)C(=O)N1 (stereo not drawn) [DEG-54, N-(2-(2,6-dioxopiperidin-3-yl)-1-oxoisoindolin-5-yl)benzo[d][1,3]dioxole-5-carboxamide] | 7.4 ± 0.8 | 9.7 ± 1.4 | – | – | 33.5 ± 10 | 57.6 ± 3.5 | – | – | 5.2 ± 1.5 | 3.3 ± 1.7 | – | – | 49.2 ± 0.2 | 84.1 ± 0.3 | – | – | –
O=C1CCC(N2Cc3cc(NC(=O)c4ccc5c(c4)OCCO5)ccc3C2=O)C(=O)N1 (stereo not drawn) [DEG-53, N-(2-(2,6-dioxopiperidin-3-yl)-1-oxoisoindolin-5-yl)-2,3-dihydrobenzo[b]dioxine-6-carboxamide] | 9.3 ± 0.8 | 8.8 ± 1.6 | – | – | 36.2 ± 4.5 | 55.4 ± 3.9 | – | – | 5 ± 1.4 | 2.4 ± 0.9 | – | – | 38.5 ± 0.2 | 76.5 ± 0.7 | – | – | –
COc1ccc(CCC(=O)Nc2ccc3c(c2)CN(C2CCC(=O)NC2=O)C3=O)cc1 (stereo not drawn) [DEG-57] | 81.9 ± 0.7 | 92.5 ± 0.2 | – | – | 40.3 ± 11.2 | 54.1 ± 2.1 | – | – | 11.7 ± 1.3 | 9.9 ± 0.8 | – | – | 76.2 ± 0.4 | 88.6 ± 0.2 | – | – | –
COc1ccc(Oc2ccc(C(=O)Nc3ccc4c(c3)CN(C3CCC(=O)NC3=O)C4=O)cc2)cc1 (stereo not drawn) [DEG-70, N-(2-(2,6-dioxopiperidin-3-yl)-1-oxoisoindolin-5-yl)-4-(4-methoxyphenoxy)benzamide] | 6.5 ± 1.4 | 16.2 ± 0.6 | – | – | 44.9 ± 3.4 | 55.8 ± 5.6 | – | – | 4.3 ± 1.1 | 4.8 ± 0.4 | – | – | 53.6 ± 0.6 | 84.5 ± 0.3 | – | – | –

From US20260021103A1, “IKZF2 AND CK1-ALPHA DEGRADING COMPOUNDS AND USES THEREOF” (President and Fellows of Harvard College, priority 2022, published 2026)
